# Measured values as given in the supplement of paper PMC11061612.
# What was measured:
# HCC70 (Breast Carcinoma) [1] = experiment: Bliss excess, mean over the matrix (fraction); higher = more synergy
# Method in brief: (§1)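 Cell lines grown in DMEM/F12 or RPMI with 10% FBS were plated in 1536-well plates and held 24 hours at 37°C, 5% CO2 before 72 hours of exposure to two-drug dose matrices, with DMSO typically at 0.2%. CellTiter-Glo 2.0 luminescence gave viability, which was converted to inhibition. Vehicle wells were set to 0 and blank wells to 1. Combination Emax is the second-highest inhibition in the matrix, and Bliss excess is the observed combination effect minus the expected EA + EB − EA·EB, where EA and EB are the single-agent effects.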
# [2] = test system: HT55 (Colorectal Carcinoma); experiment: as above
# Method in brief: as §1
# [3] = test system: JHU-022 (Oral Cavity Carcinoma); experiment: as above
# Method in brief: as §1
# [4] = test system: NCI-H2228 (Lung Adenocarcinoma); experiment: as above
# Method in brief: as §1
# [5] = test system: OACp4C (Esophageal Adenocarcinoma); experiment: as above
# Method in brief: as §1
# [6] = test system: CA46 (Burkitt's Lymphoma); experiment: combination Emax (second highest fraction inhibited in the dose matrix, 72 h); higher = more inhibition; extreme values may be limits of the assay
# Method in brief: as §1
# [7] = test system: CAL-27 (Oral Cavity Carcinoma); experiment: as above
# Method in brief: as §1
# [8] = test system: CESS (Acute Myeloid Leukemia); experiment: as above
# Method in brief: as §1
# [9] = test system: DU-4475 (Breast Carcinoma); experiment: as above
# Method in brief: as §1
# EB2 (Burkitt's Lymphoma) = experiment: as above
# Method in brief: as §1
# [10] = test system: G-402 (Other Solid Carcinomas); experiment: as above
# Method in brief: as §1
# [11] = test system: HCC1428 (Breast Carcinoma); experiment: as above
# Method in brief: as §1
# HCC70 (Breast Carcinoma) [12] = experiment: as above
# Method in brief: as §1
# IM-9 (Non-Cancerous) = experiment: as above
# Method in brief: as §1
# [13] = test system: JVM-2 (B-Cell Non-Hodgkin's Lymphoma); experiment: as above
# Method in brief: as §1
# [14] = test system: KYSE-140 (Esophageal Squamous Cell Carcinoma); experiment: as above
# Method in brief: as §1
# [15] = test system: MHH-ES-1 (Ewing's Sarcoma); experiment: as above
# Method in brief: as §1
# [16] = test system: NCI-H2087 (Lung Adenocarcinoma); experiment: as above
# Method in brief: as §1
# RH-41 (Rhabdomyosarcoma) = experiment: as above
# Method in brief: as §1
# [17] = test system: SK-HEP-1 (Hepatocellular Carcinoma); experiment: as above
# Method in brief: as §1
# 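Wherever Bliss excess, mean over the matrix is given: after 72 h of two-drug dosing.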
SMILES,Bliss excess (HCC70 (Breast Carcinoma) [1]),Bliss excess [2],Bliss excess [3],Bliss excess [4],Bliss excess [5],combination Emax [6],combination Emax [7],combination Emax [8],combination Emax [9],combination Emax (EB2 (Burkitt's Lymphoma)),combination Emax [10],combination Emax [11],combination Emax (HCC70 (Breast Carcinoma) [12]),combination Emax (IM-9 (Non-Cancerous)),combination Emax [13],combination Emax [14],combination Emax [15],combination Emax [16],combination Emax (RH-41 (Rhabdomyosarcoma)),combination Emax [17]
"CC1(C)CCC(CN2CCN(c3ccc(C(=O)NS(=O)(=O)c4ccc(NCC5CCOCC5)c([N+](=O)[O-])c4)c(Oc4cnc5[nH]ccc5c4)c3)CC2)=C(c2ccc(Cl)cc2)C1 [Venetoclax] + C[C@@H](Nc1cc(F)cc(F)c1)c1cc(C(=O)N(C)C)cc2c(=O)cc(N3CCOCC3)oc12 [AZD8186] (first compound max 1 µM, 7x7, partner max 3 µM)",0.0376,-0.0193,-0.0563,0.0129,0.0104,0.533,0.182,0.587,0.262,0.746,0.29,0.147,0.532,0.573,0.661,0.222,0.191,0.08,0.491,0.131
"COc1cccc2c1C(=O)c1c(O)c3c(c(O)c1C2=O)C[C@@](O)(C(=O)CO)C[C@@H]3O[C@H]1C[C@H](N)[C@H](O)[C@H](C)O1 [Doxorubicin] + Cc1cc2ncnn2cc1Nc1ncc2c(n1)n(C1CCOCC1)c(=O)n2C [AZD7648] (first compound max 1 µM, 7x7, partner max 10 µM)",0.0344,0.0622,-0.0307,0.0042,0.0636,0.777,0.741,0.949,1,0.979,0.949,0.168,0.488,1,0.983,0.442,0.916,0.655,0.95,0.872
"COc1cccc(OCCCN)c1-c1cc(Nc2cnc(C#N)cn2)n[nH]1 [Prexasertib] + CCc1c2c(nc3ccc(O)cc13)-c1cc3c(c(=O)n1C2)COC(=O)[C@]3(O)CC [SN-38] (first compound max 1 µM, 7x7, partner max 0.3 µM)",-0.0259,0.0552,-0.112,-0.0569,0.0186,0.837,0.948,0.983,1,0.976,0.868,0.797,0.944,1,0.985,0.945,1,0.918,1,0.761
"C=CCn1c(=O)c2cnc(Nc3ccc(N4CCN(C)CC4)cc3)nc2n1-c1cccc(C(C)(C)O)n1 [AZD1775] + O=C(c1cc(Cc2n[nH]c(=O)c3ccccc23)ccc1F)N1CCN(C(=O)C2CC2)CC1 [Olaparib] (first compound max 1 µM, partner max 10 µM)",-0.0479,0.0391,-0.0257,0.0107,-0.055,0.53,0.525,0.916,0.933,0.848,0.41,0.375,0.56,0.986,0.888,0.733,0.886,0.493,0.953,0.462
"CC1(C)CCC(CN2CCN(c3ccc(C(=O)NS(=O)(=O)c4ccc(NCC5CCOCC5)c([N+](=O)[O-])c4)c(Oc4cnc5[nH]ccc5c4)c3)CC2)=C(c2ccc(Cl)cc2)C1 [Venetoclax] + C[C@@H]1COCCN1C2=NC(=NC(=C2)C3(CC3)[S@](=N)(=O)C)C4=C5C=CNC5=NC=C4 [AZD6738] (first compound max 1 µM, 7x7, partner max 10 µM)",-0.0528,-0.0511,-0.007,-0.0361,-0.0418,0.506,0.425,0.929,1,0.844,0.705,0.397,0.819,0.995,0.892,0.863,0.707,0.53,0.855,0.28
"CN(C)CCCOc1ccc(-c2ccc3ncc4c(c3c2)n(C2CCOCC2)c(=O)n4C)cn1 [AZD0156] + CCN(CCO)CCCOc1ccc2c(Nc3cc(CC(=O)Nc4cccc(F)c4)[nH]n3)ncnc2c1 [AZD2811] (first compound max 1 µM, 7x7, partner max 1 µM)",-0.0184,0.0091,-0.0143,-0.0223,0.0091,0.291,0.546,0.25,0.392,0.416,0.532,0.161,0.604,0.944,0.719,0.288,0.55,0.0658,0.235,0.255
"CS(=O)(=O)CCNCc1ccc(-c2ccc3ncnc(Nc4ccc(OCc5cccc(F)c5)c(Cl)c4)c3c2)o1 [Lapatinib] + C[C@@H](Oc1cc(-c2cnn(C3CCNCC3)c2)cnc1N)c1c(Cl)ccc(F)c1Cl [Crizotinib] (first compound max 10 µM, 7x7, partner max 10 µM)",-0.0208,-0.0412,-0.0541,0.0163,-0.0355,0.861,0.958,0.896,0.989,0.768,0.879,0.471,0.685,0.991,0.918,0.881,0.912,0.395,0.991,0.255
"CCc1c2c(nc3ccc(O)cc13)-c1cc3c(c(=O)n1C2)COC(=O)[C@]3(O)CC [SN-38] + CN(C)CCCOc1ccc(-c2ccc3ncc4c(c3c2)n(C2CCOCC2)c(=O)n4C)cn1 [AZD0156] (first compound max 0.3 µM, 7x7, partner max 1 µM)",0.0152,0.0776,-0.0034,0.0587,0.0666,0.758,0.905,0.984,0.95,0.948,0.745,0.123,0.2,1,0.949,0.305,1,0.921,0.719,0.63
"CC1(C)CCC(CN2CCN(c3ccc(C(=O)NS(=O)(=O)c4ccc(NCC5CCOCC5)c([N+](=O)[O-])c4)c(Oc4cnc5[nH]ccc5c4)c3)CC2)=C(c2ccc(Cl)cc2)C1 [Venetoclax] + C=CCn1c(=O)c2cnc(Nc3ccc(N4CCN(C)CC4)cc3)nc2n1-c1cccc(C(C)(C)O)n1 [AZD1775] (first compound max 1 µM, partner max 1 µM)",0.0562,-0.0016,-0.0218,-0.0602,-0.03,0.738,0.328,0.966,1,0.932,0.435,0.22,0.805,0.992,0.97,0.814,0.776,0.401,1,0.34
"Cn1cnc2c(F)c(Nc3ccc(Br)cc3Cl)c(C(=O)NOCCO)cc21 [Selumetinib] + CC(C)n1c(=O)n(C)c2cnc3cc(F)c(-c4ccc(OCCCN5CCCCC5)nc4)cc3c21 [AZD1390] (first compound max 10 µM, 7x7, partner max 0.3 µM)",0.0225,-0.0388,0.02,-0.0477,0.0048,0.306,0.611,0.243,1,0.0739,0.222,0.169,0.268,0.796,0.352,0.191,0.126,0.449,0.131,0.193
"Cc1c2c(nn1C)CSCc1cc(n(C)n1)CSc1cc(c3ccccc3c1)OCCCc1c(C(=O)O)n(C)c3c-2c(Cl)ccc13 [AZD5991] + C[C@@H](Nc1cc(F)cc(F)c1)c1cc(C(=O)N(C)C)cc2c(=O)cc(N3CCOCC3)oc12 [AZD8186] (first compound max 1 µM, 7x7, partner max 3 µM)",0.0937,-0.0305,-0.0211,-0.0361,0.0153,0.167,0.936,0.554,0.117,0.467,0.942,0.964,1,0.671,0.712,0.332,0.665,0.167,0.99,0.356
"NC1(C(=O)N[C@@H](CCO)c2ccc(Cl)cc2)CCN(c2ncnc3[nH]ccc23)CC1 [Capivasertib] + Cn1cnc2c(F)c(Nc3ccc(Br)cc3Cl)c(C(=O)NOCCO)cc21 [Selumetinib] (first compound max 10 µM, 7x7, partner max 10 µM)",0.18,-0.0042,-0.0397,0.017,-0.0318,0.2,0.815,0.672,1,0.628,0.513,0.171,0.908,0.874,0.737,0.873,0.379,0.539,0.934,0.197
"CN(C)CCCOc1ccc(-c2ccc3ncc4c(c3c2)n(C2CCOCC2)c(=O)n4C)cn1 [AZD0156] + O=C(c1cc(Cc2n[nH]c(=O)c3ccccc23)ccc1F)N1CCN(C(=O)C2CC2)CC1 [Olaparib] (first compound max 3 µM, partner max 3 µM)",-0.0548,0.0254,-0.0079,0.0272,-0.0005,0.567,0.299,0.376,0.434,0.496,0.41,0.228,0.359,0.656,0.533,0.113,0.801,0.12,0.586,0.332
